Assay results taken from patent US7786257B2, “Signal-1/signal-2 bifunctional peptide inhibitors” (priority 2000, dated 2010).
Entries after “also recorded” stand apart in the source; their conditions may differ. Where no end group is shown, it is not given here. [ ]: non-standard residue; d: D form. Ahx = NCCCCCC(=O)O

How the values were obtained:
[1] = test system: T-cells from NOD mice; assay: ELISPOT of IL-4 and IFN-γ release by T-cells from treated NOD mice (TH1/TH2 frequency); type: in vivo, mouse
Source text: Groups of 3-5 NOD mice were immunized subcutaneously (s.c.) with the GAD 65 peptide in CFA (40 nanomoles/mouse) at the tail base. Different groups received either the EGAD-BPI, its single TCR epitope (Signal-1 moiety), or its CD11a peptide (Signal-2 moiety) i.v. (all 40 nanomoles/mouse). After 6-8 days, another identical 40 nanomole injection was given to each mouse, and the next day lymph nodes draining the site of the s.c. injection were made into single cell suspensions for culture. Identical primary cultures were incubated for 96 hours; then, viable T-cells were recovered by density gradient centrifugation. One million of these cells were combined in nitrocellulose-bottomed 96-well plates (Millititer-HA, Millipore, Bedford, Mass.), previously coated (50 μl/well) with mAb to either mouse IFNγ (clone R4-6A2), or mouse IL-4 (clone BVD4-1D11) at a concentration of 10 μg/ml in PBS. Groups of triplicate cultures were incubated with either Concanavalin-A (2 μg/ml), or the Signal-1 peptide moiety plus 20 U/ml recombinant IL2 (R & D Systems). After 72-96 hours of culture at 37° C. and 5% CO2, plates were washed three times with PBS-0.05% Tween-20. In appropriate wells are added biotinylated anti-IFNγ (clone XMG1.2) or biotinylated anti-IL-4 (clone BVD6-24G2) at a concentration of 1 μg/ml and incubated for 1 hour at room temperature. Positive control wells receive known TH1 or TH2 clones in place of normal T-cells. MAb pairs to IL12, IL10, and IL2 are also available and will be used to test for these cytokines in the same assay. All mAb and recombinant controls are purchased from PharMingen (San Diego, Calif.). Finally, plates were washed three times with PBS-Tween, and then exposed to 100 μl of a 1:2000 dilution of streptavidin alkaline phosphatase (Jackson ImmunoResearch, West Grove, Pa.) for 1 h and washed as before. […]

[2] = test system: NOD mice; assay: Lymphocytic infiltration of pancreatic islets (insulitis) in NOD mice, histological scoring; type: in vivo, mouse
Source text: To evaluate the disease process by immunohistology (see, e.g., FIG. 12A-D), spleen, pancreas, or other target organs, e.g., the CNS for the MDP peptide BPI, or lung for the RSV peptide BPI, were removed from euthanized mice of each group and prepared for histology by fixing in neutral buffered formalin and embedding in paraffin, or snap frozen in O.C.T. medium. For scoring inflammation, minimums of five sections from each mouse were used to assess the blocking affect of a given BPI. For characterization of standard T-cell markers on cellular infiltrates, biotinylated mAb to various cell surface antigens will be incubated individually with the Cryostat sections (2 hours), followed by avidin-alkaline phosphatase (Vector laboratories). Alternatively, cell subsets will be phenotyped by standard flow cytometry methods as described in Murray et al., 24 Eur. J. Immunol. 2337-2344 (1994); Murray; 19 Immunology Today 157-163; and Schountz et al., 157 The Journal of Immunology 3893-3901 (1996). Finally, the students t-test or ANOVA will be used to estimate the statistical significance of differences observed between groups and individual mice.
These studies sought to confirm that the BPI containing the immunodominant GAD65 TCR epitope (EGAD-BPI) was biologically active in vivo and inhibited the development of pancreatic inflammation. Groups of three normal glycemic NOD males (8 weeks old) were immunized with the GAD65 (208-217) peptide in CFA as described in Example 4. The control group received PBS, and separate experimental groups received either the EGAD-BPI, the GAD peptide alone (i.e., the T-cell receptor epitope), or the CD11a peptide alone(i.e., the second signal receptor moiety) by two intravenous injections as described in Example 4. On day 10, the pancreata were removed to 10% PBS-buffered formalin, embedded in paraffin, and five-micron serial sections were examined histologically for mononuclear cell infiltration as previously described by Yoon, et al., Control of Autoimmune Diabetes in NOD Mice by GAD Expression or Suppression in β Cells, 284 Science 1183-1187 (1999), the entirety of which is hereby incorporated by reference.

GAD65(208-217)-[Ac-G-Ac-G-Ac]-CD11a (237-247) (EIAPVFVLLE[Ahx]G[Ahx]G[Ahx]ITDGEATDSG) [EGAD-BPI]
IFN-γ production ([1]; T-cells from treated animals stimulated in vitro with mitogen): also increased, although to a lesser extent | IL-4 production increase ([1]; T-cells from treated animals stimulated in vitro with mitogen, versus saline control, 40 nanomoles/mouse i.v. twice): approximately 10 fold | IL-4 production ([1]; treated NOD mice versus control mice): abundant IL-4 | intact / normal islets without infiltration (grade-0 islets), percentage of islets examined ([2]; NOD males, GAD65 peptide in CFA, two i.v. injections of 40 nanomoles, day 10): Over 95% | mononuclear cell infiltration of islets (insulitis), in words ([2]; NOD males, day 10, histology): clear inhibitory effect; also recorded: predominately intact | inhibition of insulitis ([2]; compared to the PBS control, calculated from % islets at grade 1-4): 84%
